Data published in patent US20250289799A1, “PYRIMIDINE COMPOUND, METHOD FOR PREPARING SAME, AND PHARMACEUTICAL USE THEREOF” (JIANGSU YAHONG MEDITECH CO., LTD., priority 2022, published 2025).

Molecular target: Recombinant human His6-USP1/His6-UAF1 complex protein (Homo sapiens (Human), UniProt O94782)
Assay: In vitro , fluorescence detection with Ub-Rho substrate
Assay type: biochemical
Details: not given
Description: Experimental object: The USP1 […] inhibitory activity of the compounds was screened by fluorescence detection method using 384-well plates.
Experimental materials: Recombinant human His6-USP1/His6-UAF1 complex protein (R&D, Catalog No.: E-568-050), ubiquitin rhodamine 110 protein (Ub-Rho) (R&D, Catalog No.: U-555-050), 384-well plate (Perkin Elmer, Catalog No.: 6007279); all compounds were dissolved in 100% DMSO to obtain a 50 mM stock solution.
• 1) Preparation of 1× assay buffer: 1× assay buffer (modified Tris buffer) was prepared; • 2) Compound dilution: The compound was transferred to the assay plate by Echo. The final concentration of DMSO is 1%; • 3) Preparation of enzyme solution: Recombinant human His6-USP1/His6-UAF1 complex protein was added to 1× assay buffer to obtain an enzyme solution; • 4) Preparation of substrate solution: Ubiquitin rhodamine 110 protein CF (Ub-Rho) was added to 1× assay buffer to obtain a substrate solution; • 5) 10 μL enzyme solution was transferred to the assay plate, and 10 μL 1× assay buffer was added to the control well; • 6) The plate was incubated at room temperature for 1 hour; • 7) 10 μL substrate solution was added to each well to start the reaction, and the plate was centrifuged for 30 seconds, and shaked for 30 seconds; • 8) The plate was read with Envision after 30 minutes, and the parameters were excitation light 480 nm and emission light 540 nm; • 9) The data was collected and summarized; • 10) Curve fitting: The data was fitted in Excel, Inhibition rate formula: Percent inhibition rate=(maximum value−signal value)/(maximum value−minimum value)×100; the data was fitted in XL-Fit, • Half inhibition concentration formula: Percent inhibition rate=minimum concentration+(maximum concentration−minimum concentration)/(1+(half inhibition concentration/compound concentration)^slope); • Half inhibition concentration is referred to as IC50 hereinafter.

Chain of Recombinant human His6-USP1/His6-UAF1 complex protein (O94782 whole entry): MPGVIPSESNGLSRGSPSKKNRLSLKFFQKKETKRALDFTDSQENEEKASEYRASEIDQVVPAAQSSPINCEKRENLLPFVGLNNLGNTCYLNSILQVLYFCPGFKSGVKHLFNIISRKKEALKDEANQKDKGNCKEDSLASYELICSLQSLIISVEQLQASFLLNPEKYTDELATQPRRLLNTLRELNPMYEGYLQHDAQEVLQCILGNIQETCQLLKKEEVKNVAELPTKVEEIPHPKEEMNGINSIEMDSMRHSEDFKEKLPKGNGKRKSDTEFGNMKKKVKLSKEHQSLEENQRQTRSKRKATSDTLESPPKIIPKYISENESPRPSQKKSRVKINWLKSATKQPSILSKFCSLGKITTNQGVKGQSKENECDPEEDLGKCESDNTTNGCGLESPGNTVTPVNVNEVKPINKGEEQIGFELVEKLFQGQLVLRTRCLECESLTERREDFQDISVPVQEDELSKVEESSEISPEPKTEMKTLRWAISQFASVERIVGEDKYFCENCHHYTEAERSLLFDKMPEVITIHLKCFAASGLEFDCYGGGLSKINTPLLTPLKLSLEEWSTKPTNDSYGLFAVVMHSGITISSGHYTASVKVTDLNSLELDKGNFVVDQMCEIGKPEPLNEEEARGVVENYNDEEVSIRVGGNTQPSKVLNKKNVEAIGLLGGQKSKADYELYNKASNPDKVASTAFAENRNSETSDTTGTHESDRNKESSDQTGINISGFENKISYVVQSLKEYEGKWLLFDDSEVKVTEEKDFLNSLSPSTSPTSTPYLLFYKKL
Chain of Recombinant human His6-USP1/His6-UAF1 complex protein (Q8TAF3 whole entry partner): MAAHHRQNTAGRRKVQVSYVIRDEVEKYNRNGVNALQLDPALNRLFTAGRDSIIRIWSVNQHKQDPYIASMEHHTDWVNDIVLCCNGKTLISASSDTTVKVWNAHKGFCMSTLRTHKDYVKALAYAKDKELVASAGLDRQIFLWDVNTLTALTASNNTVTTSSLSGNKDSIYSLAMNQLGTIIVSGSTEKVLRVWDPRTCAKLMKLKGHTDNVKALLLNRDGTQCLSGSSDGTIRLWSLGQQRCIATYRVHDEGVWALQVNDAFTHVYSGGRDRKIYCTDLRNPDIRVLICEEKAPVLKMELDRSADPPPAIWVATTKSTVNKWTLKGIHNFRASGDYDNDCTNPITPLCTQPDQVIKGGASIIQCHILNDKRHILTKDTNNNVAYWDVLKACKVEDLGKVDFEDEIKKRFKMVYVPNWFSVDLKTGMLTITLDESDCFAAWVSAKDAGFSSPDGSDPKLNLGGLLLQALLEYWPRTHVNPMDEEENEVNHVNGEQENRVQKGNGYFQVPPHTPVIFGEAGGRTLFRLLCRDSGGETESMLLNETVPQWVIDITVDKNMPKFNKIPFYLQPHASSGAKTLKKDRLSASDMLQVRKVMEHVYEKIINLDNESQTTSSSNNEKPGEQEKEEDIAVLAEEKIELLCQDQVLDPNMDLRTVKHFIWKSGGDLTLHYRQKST

First: CC(C)c1ccccc1-c1ncc2c(n1)N(C[C@H]1CC[C@@H](c3nc(C(F)(F)F)cn3C)CC1)CCO2 [Compound 14, 2-(2-Isopropylphenyl)-8-(((1s,4s)-4-(1-methyl-4-(trifluoromethyl)-1H-imidazol-2-yl)cyclohexyl)methyl)-7,8-dihydro-6H-pyrimido[5,4-b][1,4]oxazine]
Second: CC(C)c1ccccc1-c1ncc2c(n1)N(C[C@H]1CC[C@H](c3nc(C(F)(F)F)cn3C)CC1)CCO2 [Compound 13, 2-(2-Isopropylphenyl)-8-(((1R,4R)-4-(1-methyl-4-(trifluoromethyl)-1H-imidazol-2-yl)cyclohexyl)methyl)-7,8-dihydro-6H-pyrimido[5,4-b][1,4]oxazine]
The IC50 of the first is 32-fold higher: 60 nM for the first, 1.9 nM for the second.

Compared with COc1cnc(-c2c(OC)ncnc2C2CC2)nc1NCC12C3C4C1C1C2C3C41c1nc(C(F)(F)F)cn1C (centres unmarked) [Example 215], COc1cnc(-c2c(C)ncn2C(C)C)nc1NCC12CCC(c3ccc(C(F)(F)F)cn3)(CC1)CC2 [Example 148, 2-(1-Isopropyl-4-methyl-1H-imidazol-5-yl)-5-methoxy-N-((4-(5-(trifluoromethyl)pyridin-2-yl)bicyclo[2.2.2]octan-1-yl)methyl)pyrimidin-4-amine] is 480-fold higher in IC50: 2.2 nM for the first, 1050 nM for the second.

In the case of COc1ncnc(C2CC2)c1-c1nc(NCc2ccc(-c3ccccn3)cc2)c2occc2n1 [Example 34, 2-(4-Cyclopropyl-6-methoxypyrimidin-5-y1)-N-(4-(pyridin-2-yl)benzyl)furo[3,2-d]pyrimidin-4-amine], the IC50 is reported as 6.9 nM.

Test system: MDA-MB-436
Assay: CTG experiment on cell activity (CellTiter-Glo, 7 days)
Assay type: cell-based
Details: Homo sapiens, 168 h, MDA-MB-436 cells, cultured for 7 days
Description: • 1. Object: USP1 inhibitors were screened on 96-well plate by CTG assay. • 2. Materials: • The cells used were MDA-MB-436 (manufacturer: Nanjing Cobioer Biotechnology Co., Ltd.), and the culture medium was DMEM. • CTG (CellTiter-Glo® Luminescent Cell Viability Assay kit) (Promega, Catalog No.: G7572) • 96-well plate (Corning, Catalog No.: 3610) • 3. Compounds: • All compounds were dissolved in 100% DMSO to obtain 50 mM stock solutions. • 4. Experimental methods:
The cells to be tested were spread into a 96-well plate at a certain density at 200 μL per well, and 200 μL of cell culture medium was added to the blank well. The spread cell plate was placed in a 37° C. incubator.
The compound was diluted to different concentrations with 100% DMSO, and the final concentration of DMSO was 4%.
The compound formulated in (2) was added to the cell plate of (1) (10 μL per well). The cell plate with the compound added was placed in a 37° C. incubator, and cultured for 7 days before assay.
The substrate and buffer of the CTG kit were mixed evenly. The cell plate with the compound added in (3) was taken out from the incubator, and placed at room temperature for 30 minutes. The compound-containing culture medium in the cell plate was removed, 100 μL of PBS and 50 μL of CTG reagent were added to each well. The mixture in each well was mixed and shaked for 3 minutes, and then incubated at room temperature for 10 minutes. The plate was read by BIotek microplate reader, and the parameter was 567 CPM. • 5. Curve fitting • Same as enzyme assay.

Going from COc1cnc(-c2ccccc2C(C)C)nc1NCC1CCC(c2nc(C(F)(F)F)cn2C)CC1 [Compound 6, 2-(2-Isopropylphenyl)-5-methoxy-N-(((1R,4R)-4-(1-methyl-4-(trifluoromethyl)-1H-imidazol-2-yl)cyclohexyl)methyl)pyrimidin-4-amine] to CC(C)c1ccccc1-c1ncc(N2CCOCC2)c(NCc2ccc(-c3nc(C(F)(F)F)cn3C)cc2)n1 [Example 87, 2-(2-Isopropylphenyl)-N-(4-(1-methyl-4-(trifluoromethyl)-1H-imidazol-2-yl)benzyl)-5-morpholinopyrimidin-4-amine], the IC50 rises from 2 nM to 2650 nM (1300-fold). The first is the more potent here.

Going from COc1ncnc(C2CC2)c1-c1nc(NCc2ccc3c(c2)CCN(C(C)C)C3=O)c2occc2n1 [Example 115, 6-(((2-(4-Cyclopropyl-6-methoxypyrimidin-5-yl)furo[3,2-d]pyrimidin-4-yl)amino)methyl)-2-isopropyl-3,4-dihydroisoquinolin-1(2H)-one] to COc1ncnc(C2CC2)c1-c1nc(NCc2ccc3c(c2)CCN(C)C3=O)c2occc2n1 [Example 114, 6-(((2-(4-Cyclopropyl-6-methoxypyrimidin-5-yl)furo[3,2-d]pyrimidin-4-yl)amino)methyl)-2-methyl-3,4-dihydroisoquinolin-1(2H)-one], the IC50 rises from 1610 nM to > 5000 nM.

First: COc1cnc(-c2cccc3c2N(C)CC3)nc1NCc1ccc(-n2ncc(C(F)(F)F)c2C)cc1 [Example 146, 5-Methoxy-N-(4-(5-methyl-4-(trifluoromethyl)-1H-pyrazol-1-yl)benzyl)-2-(1-methylindolin-7-yl)pyrimidin-4-amine]
Second: COc1cnc(-c2cccc3ccn(C)c23)nc1NCc1ccc(-n2nc(C(F)(F)F)cc2C)cc1 [Example 144, 5-Methoxy-2-(1-methyl-1H-indol-7-yl)-N-(4-(5-methyl-3-(trifluoromethyl)-1H-pyrazol-1-yl)benzyl)pyrimidin-4-amine]
The IC50 of the first is 1.6-fold lower: 1060 nM for the first, 1670 nM for the second.

Going from CC(C)c1ccccc1-c1nc(NCc2ccc3c(c2)CCN(C)C3=O)c2occc2n1 [Example 77, 6-(((2-(2-Isopropylphenyl)furo[3,2-d]pyrimidin-4-yl)amino)methyl)-2-methyl-3,4-dihydroisoquinolin-1(2H)-one] to CC(C)c1ccccc1-c1nc(NCc2ccc3c(c2)CCN(C(C)C)C3=O)c2occc2n1 [Example 78, 2-Isopropyl-6-(((2-(2-isopropylphenyl)furo[3,2-d]pyrimidin-4-yl)amino)methyl)-3,4-dihydroisoquinolin-1(2H)-one], the IC50 rises from 1800 nM to > 5000 nM.

COc1cnc(-c2ccccc2C(C)C)nc1NCc1ccc(OCc2ccccn2)cc1 [Example 67, 2-(2-Isopropylphenyl)-5-methoxy-N-(4-(pyridin-2-ylmethoxy)benzyl)pyrimidin-4-amine] and COc1cnc(-c2ccccc2C(C)C)nc1N(C)Cc1ccc(-c2ccccn2)cc1 [Compound 1, 2-(2-isopropylphenyl)-5-methoxy-N-methyl-N-(4-(pyridin-2-yl)benzyl)pyrimidin-4-amine] are within 1.5-fold of each other in IC50: 1170 nM for the first, 1270 nM for the second.

Compared with COc1ncnc(C2CC2)c1-c1ncc2c(n1)N(CC1CCC(c3nc(C(F)(F)F)cn3C)CC1)CCO2 (centres unmarked) [Compound 22, 2-(4-Cyclopropyl-6-methoxypyrimidin-5-y1)-8-(((1r,4r)-4-(1-methyl-4-(trifluoromethyl)-1H-imidazol-2-yl)cyclohexyl)methyl)-7,8-dihydro-6H-pyrimido[5,4-b][1,4]oxazine], COc1ncnc(C2CC2)c1-c1ncc(OC(C)C)c(NCC23CCC(c4ccc(C(F)(F)F)cn4)(CC2)CC3)n1 [Example 112, 4′-Cyclopropyl-5-isopropoxy-6′-methoxy-N-((4-(5-(trifluoromethyl)pyridin-2-yl)bicyclo[2.2.2]octan-1-yl)methyl)-[2,5′-bipyrimidin]-4-amine] is higher in IC50: 209 nM for the first, > 5000 nM for the second. The first is the more potent here.

First: COc1ncnc(C2CC2)c1-c1nc(NCc2ccc(OC3CC(OC)C3)cc2)c2occc2n1 (centres unmarked) [Example 118, 2-(4-Cyclopropyl-6-methoxypyrimidin-5-yl)-N-(4-(3-methoxycyclobutoxy)benzyl)furo[3,2-d]pyrimidin-4-amine]
Second: COC1CC(Oc2ccc(CNc3nc(-c4ccccc4C(C)C)nc4ccoc34)cc2)C1 (centres unmarked) [Example 80, 2-(2-Isopropylphenyl)-N-(4-(3-methoxycyclobutoxy)benzyl)furo[3,2-d]pyrimidin-4-amine]
The IC50 of the first is lower: 1490 nM for the first, > 5000 nM for the second. The first is the more potent here.

CCOCCOc1ccc(CNc2nc(-c3ccccc3C(C)C)nc3ccoc23)cc1 [Example 79, N-(4-(2-Ethoxyethoxy)benzyl)-2-(2-isopropylphenyl)furo[3,2-d]pyrimidin-4-amine] and COc1cnc(-c2cccc3ccn(C)c23)nc1NCc1ccc(-c2nc(C(F)(F)F)cn2C)cc1 [Example 143, 5-Methoxy-2-(1-methyl-1H-indol-7-yl)-N-(4-(1-methyl-4-(trifluoromethyl)-1H-imidazol-2-yl)benzyl)pyrimidin-4-amine] are within 1.5-fold of each other in IC50: 1210 nM for the first, 1440 nM for the second.

In the case of COc1ncnc(C2CC2)c1-c1nc(NCc2ccc(-c3ccccn3)cc2)c2[nH]ccc2n1 [Example 37, 2-(4-Cyclopropyl-6-methoxypyrimidin-5-yl)-N-(4-(pyridin-2-yl)benzyl)-5H-pyrrolo[3,2-d]pyrimidin-4-amine], the IC50 is reported as > 5000 nM.

Same assay, conditions: MDA-MB-436 cells, cultured for 7 days

COc1cnc(-c2c(OC)ncnc2C2CC2)nc1NCC12C3C4C1C1C2C3C41c1nc(C(F)(F)F)cn1C (centres unmarked) [Example 215] was tested, and the IC50 was 8.7 nM.
